Calls of active or inactive are those of the source. The calls are words filed in the database; no cut-off is given here.
Experiments:
[1] = target: STE20-like serine/threonine-protein kinase (Homo sapiens) (UniProt Q9H2G2); assay: Inhibition of SLK Lys1 labeling site in human A-375 cells at 5 uM by KiNativ Profiling analysis relative to control; type: cell-based
[2] = target: Mitogen-activated protein kinase 7 (Homo sapiens) (UniProt Q13164); assay: Inhibition of Erk5 K2 labeling site in human Huh-7 cells at 10 uM by KiNativ Profiling analysis relative to control; type: cell-based
Sequence of Mitogen-activated protein kinase 7 (Homo sapiens) (Q13164 2-816 limits assumed): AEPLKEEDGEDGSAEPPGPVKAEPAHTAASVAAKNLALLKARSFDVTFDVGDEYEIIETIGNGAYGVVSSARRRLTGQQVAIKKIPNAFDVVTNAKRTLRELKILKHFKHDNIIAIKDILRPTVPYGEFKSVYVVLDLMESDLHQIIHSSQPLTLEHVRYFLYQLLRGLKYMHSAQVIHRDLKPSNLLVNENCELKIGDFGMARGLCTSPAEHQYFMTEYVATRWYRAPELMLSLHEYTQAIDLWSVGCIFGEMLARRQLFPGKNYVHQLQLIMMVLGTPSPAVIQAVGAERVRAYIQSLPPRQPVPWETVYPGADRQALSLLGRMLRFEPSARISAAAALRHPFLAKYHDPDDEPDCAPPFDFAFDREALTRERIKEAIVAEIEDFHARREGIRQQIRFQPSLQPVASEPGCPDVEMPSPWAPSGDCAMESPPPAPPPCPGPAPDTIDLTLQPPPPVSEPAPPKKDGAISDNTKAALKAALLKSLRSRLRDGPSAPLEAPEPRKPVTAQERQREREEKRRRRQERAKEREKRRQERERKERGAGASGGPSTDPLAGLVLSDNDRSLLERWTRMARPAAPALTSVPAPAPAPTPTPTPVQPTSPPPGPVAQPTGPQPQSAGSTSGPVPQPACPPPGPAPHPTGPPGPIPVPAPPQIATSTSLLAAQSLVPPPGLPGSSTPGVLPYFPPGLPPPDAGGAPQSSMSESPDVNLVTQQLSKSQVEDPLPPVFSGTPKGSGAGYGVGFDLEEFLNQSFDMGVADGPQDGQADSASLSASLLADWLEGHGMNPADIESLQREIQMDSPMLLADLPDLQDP

[3] = target: Ribosomal protein S6 kinase alpha-3 (Homo sapiens) (UniProt P51812); assay: Inhibition of N-terminal RPS6KA3 kinase domain 1 (unknown origin) at 10 uM by Ambit Kinomescan binding assay
Sequence of Ribosomal protein S6 kinase alpha-3 (Homo sapiens) (P51812 whole entry, the tested form may be a part): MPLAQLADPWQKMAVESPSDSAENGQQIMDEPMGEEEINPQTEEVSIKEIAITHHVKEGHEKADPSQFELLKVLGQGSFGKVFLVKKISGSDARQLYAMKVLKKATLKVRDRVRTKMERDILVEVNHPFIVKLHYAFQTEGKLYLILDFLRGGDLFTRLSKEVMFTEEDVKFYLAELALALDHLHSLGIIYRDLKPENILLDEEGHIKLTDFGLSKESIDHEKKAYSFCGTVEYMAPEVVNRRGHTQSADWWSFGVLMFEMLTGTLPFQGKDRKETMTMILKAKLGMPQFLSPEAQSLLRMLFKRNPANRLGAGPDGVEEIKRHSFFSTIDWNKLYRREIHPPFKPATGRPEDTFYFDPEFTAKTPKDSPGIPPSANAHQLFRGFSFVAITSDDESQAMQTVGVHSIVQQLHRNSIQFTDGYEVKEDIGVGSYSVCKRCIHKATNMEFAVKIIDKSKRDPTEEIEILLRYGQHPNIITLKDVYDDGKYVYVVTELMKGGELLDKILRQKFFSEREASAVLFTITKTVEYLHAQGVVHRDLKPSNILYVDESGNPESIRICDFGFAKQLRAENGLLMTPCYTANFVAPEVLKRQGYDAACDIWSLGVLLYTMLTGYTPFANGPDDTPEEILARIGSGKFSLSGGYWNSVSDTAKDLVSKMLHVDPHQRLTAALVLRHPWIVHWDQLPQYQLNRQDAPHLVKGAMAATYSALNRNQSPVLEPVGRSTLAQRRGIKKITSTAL

[4] = target: T1, Mitogen-activated protein kinase kinase kinase 7 (Homo sapiens) (UniProt O43318); assay: Inhibition of TAK1 Lys2 labeling site in human A-375 cells at 5 uM by KiNativ Profiling analysis relative to control; type: cell-based
T1 sequence (whole entry): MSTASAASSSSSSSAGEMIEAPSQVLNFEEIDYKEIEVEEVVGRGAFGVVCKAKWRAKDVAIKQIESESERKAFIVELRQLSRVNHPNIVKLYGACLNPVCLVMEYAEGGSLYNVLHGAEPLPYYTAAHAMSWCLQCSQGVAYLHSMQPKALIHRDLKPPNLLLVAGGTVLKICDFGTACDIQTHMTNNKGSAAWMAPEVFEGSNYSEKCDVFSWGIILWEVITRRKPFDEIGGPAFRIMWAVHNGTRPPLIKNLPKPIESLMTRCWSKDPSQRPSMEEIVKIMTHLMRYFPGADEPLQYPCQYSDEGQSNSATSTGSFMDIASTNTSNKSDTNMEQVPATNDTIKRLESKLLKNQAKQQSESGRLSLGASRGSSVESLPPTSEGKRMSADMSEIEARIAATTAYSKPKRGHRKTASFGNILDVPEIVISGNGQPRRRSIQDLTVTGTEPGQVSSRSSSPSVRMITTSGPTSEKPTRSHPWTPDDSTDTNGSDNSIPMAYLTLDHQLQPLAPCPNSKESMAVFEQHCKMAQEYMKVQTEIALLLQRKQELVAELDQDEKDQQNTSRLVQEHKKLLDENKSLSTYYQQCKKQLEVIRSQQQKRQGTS

[5] = target: Ribosomal protein S6 kinase beta-2 (Homo sapiens) (UniProt Q9UBS0); assay: Inhibition of p70S6Kb Lys2 labeling site in human Huh-7 cell lysate at 1 uM by KiNativ Profiling analysis relative to control; type: subcellular
Sequence of Ribosomal protein S6 kinase beta-2 (Homo sapiens) (Q9UBS0 whole entry): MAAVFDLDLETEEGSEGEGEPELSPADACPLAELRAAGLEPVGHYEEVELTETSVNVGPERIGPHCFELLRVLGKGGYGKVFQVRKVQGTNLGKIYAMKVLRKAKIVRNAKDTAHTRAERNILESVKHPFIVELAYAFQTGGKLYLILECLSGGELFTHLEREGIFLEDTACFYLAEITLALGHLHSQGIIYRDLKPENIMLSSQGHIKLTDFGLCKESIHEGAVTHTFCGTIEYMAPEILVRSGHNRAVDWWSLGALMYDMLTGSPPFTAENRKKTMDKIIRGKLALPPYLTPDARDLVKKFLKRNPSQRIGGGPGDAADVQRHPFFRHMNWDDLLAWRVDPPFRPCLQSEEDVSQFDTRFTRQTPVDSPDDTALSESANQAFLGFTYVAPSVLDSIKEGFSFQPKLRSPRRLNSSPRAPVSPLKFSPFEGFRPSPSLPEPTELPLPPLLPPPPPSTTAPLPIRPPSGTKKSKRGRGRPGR

[6] = target: T2, Serine/threonine-protein kinase TBK1 (Homo sapiens) (UniProt Q9UHD2); assay: Inhibition of TBK1 Lys2 labeling site in human Huh-7 cell lysate at 1 uM by KiNativ Profiling analysis relative to control; type: subcellular
T2 sequence (whole entry): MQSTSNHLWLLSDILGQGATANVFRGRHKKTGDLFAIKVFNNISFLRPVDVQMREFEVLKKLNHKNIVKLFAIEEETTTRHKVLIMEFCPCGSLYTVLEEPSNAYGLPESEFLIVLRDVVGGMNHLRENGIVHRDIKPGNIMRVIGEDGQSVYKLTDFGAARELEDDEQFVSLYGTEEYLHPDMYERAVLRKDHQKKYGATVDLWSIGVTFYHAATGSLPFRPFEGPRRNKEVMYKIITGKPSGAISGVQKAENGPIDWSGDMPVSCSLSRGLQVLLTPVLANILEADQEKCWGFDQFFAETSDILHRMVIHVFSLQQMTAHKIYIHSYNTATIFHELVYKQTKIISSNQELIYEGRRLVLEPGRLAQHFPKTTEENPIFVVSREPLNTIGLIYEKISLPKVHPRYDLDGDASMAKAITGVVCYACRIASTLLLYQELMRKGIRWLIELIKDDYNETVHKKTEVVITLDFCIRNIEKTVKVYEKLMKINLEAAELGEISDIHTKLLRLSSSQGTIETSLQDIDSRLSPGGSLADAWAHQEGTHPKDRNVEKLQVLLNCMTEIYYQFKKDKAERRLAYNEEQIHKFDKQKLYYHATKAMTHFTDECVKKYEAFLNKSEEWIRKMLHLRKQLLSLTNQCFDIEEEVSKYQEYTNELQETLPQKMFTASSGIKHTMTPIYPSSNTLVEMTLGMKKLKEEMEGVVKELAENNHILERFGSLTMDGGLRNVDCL

[7] = target: Serine/threonine-protein kinase B-raf (Homo sapiens, UniProt P15056); assay: Inhibition of BRAF Lys2 labeling site in human A-375 cells at 0.5 uM by KiNativ Profiling analysis relative to control; type: cell-based
Sequence of Serine/threonine-protein kinase B-raf (P15056 whole entry): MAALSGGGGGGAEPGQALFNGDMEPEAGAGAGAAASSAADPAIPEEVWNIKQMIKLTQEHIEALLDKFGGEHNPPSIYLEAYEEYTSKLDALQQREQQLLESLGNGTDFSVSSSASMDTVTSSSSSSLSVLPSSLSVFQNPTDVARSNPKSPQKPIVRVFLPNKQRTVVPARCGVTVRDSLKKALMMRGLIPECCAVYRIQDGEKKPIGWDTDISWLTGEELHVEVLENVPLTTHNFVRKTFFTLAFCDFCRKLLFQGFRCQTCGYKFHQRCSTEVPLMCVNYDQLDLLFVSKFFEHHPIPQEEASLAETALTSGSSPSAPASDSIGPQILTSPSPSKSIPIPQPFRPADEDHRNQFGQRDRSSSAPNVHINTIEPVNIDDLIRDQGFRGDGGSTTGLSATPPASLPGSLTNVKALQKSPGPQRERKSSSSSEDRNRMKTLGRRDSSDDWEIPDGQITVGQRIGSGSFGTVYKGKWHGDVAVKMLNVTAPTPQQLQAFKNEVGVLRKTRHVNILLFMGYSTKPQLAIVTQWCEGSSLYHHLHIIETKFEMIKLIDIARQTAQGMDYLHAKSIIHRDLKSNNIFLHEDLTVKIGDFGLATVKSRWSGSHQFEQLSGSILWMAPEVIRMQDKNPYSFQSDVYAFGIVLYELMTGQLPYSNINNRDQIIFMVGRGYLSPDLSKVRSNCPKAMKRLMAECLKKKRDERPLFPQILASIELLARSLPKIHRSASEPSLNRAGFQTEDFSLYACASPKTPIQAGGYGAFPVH

[8] = target: Calcium/calmodulin-dependent protein kinase type II subunit gamma (Homo sapiens) (UniProt Q13555); assay: Inhibition of CaMK2g Lys1 labeling site harbouring KTSTQEYAAKIINTKK in human A-375 cells at 0.5 uM by KiNativ Profiling analysis relative to control; type: cell-based
Sequence of Calcium/calmodulin-dependent protein kinase type II subunit gamma (Homo sapiens) (Q13555 whole entry): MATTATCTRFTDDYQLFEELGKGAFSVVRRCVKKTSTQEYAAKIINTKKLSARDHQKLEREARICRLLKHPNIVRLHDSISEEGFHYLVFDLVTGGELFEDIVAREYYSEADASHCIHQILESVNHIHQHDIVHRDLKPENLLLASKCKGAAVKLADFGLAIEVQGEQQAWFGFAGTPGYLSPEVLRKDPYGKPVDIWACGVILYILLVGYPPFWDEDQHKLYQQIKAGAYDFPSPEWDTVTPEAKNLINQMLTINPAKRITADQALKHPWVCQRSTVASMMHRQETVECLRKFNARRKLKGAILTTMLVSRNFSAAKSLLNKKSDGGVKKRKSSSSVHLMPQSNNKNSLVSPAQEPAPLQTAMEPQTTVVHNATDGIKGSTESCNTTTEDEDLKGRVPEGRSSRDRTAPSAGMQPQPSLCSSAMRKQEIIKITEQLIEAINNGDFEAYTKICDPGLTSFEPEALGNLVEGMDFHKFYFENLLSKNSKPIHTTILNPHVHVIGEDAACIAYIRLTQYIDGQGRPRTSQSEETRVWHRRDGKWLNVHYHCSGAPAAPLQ

[9] = target: T3, Serine/threonine-protein kinase Nek9 (Homo sapiens) (UniProt Q8TD19); assay: Inhibition of NEK9 ACT labeling site in human A-375 cells at 5 uM by KiNativ Profiling analysis relative to control; type: cell-based
T3 sequence (whole entry): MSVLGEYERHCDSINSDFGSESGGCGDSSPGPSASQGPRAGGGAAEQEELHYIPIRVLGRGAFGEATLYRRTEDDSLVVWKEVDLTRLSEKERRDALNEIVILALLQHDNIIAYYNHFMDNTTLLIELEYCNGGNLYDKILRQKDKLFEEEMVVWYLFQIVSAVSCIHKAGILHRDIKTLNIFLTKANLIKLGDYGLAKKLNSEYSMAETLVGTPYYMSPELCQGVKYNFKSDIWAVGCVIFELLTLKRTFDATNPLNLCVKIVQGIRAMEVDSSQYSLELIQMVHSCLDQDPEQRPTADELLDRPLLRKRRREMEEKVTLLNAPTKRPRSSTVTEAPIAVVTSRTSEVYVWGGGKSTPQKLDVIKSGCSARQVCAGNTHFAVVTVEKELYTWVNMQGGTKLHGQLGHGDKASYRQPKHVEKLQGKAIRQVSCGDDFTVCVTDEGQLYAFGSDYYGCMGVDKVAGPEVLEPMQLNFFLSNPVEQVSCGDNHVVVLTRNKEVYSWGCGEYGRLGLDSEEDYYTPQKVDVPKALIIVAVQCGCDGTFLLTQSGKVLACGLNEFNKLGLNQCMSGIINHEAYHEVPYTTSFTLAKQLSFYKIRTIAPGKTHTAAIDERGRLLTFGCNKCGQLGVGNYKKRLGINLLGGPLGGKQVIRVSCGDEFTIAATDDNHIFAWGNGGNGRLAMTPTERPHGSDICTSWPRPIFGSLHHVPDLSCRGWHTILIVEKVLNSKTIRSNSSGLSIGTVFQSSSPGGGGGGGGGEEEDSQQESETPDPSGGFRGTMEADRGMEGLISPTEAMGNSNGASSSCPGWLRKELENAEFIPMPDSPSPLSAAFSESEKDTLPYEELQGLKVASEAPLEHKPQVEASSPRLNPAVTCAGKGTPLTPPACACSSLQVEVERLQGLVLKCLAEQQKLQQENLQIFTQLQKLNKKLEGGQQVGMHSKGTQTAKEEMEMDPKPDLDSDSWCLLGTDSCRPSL

Sequence of STE20-like serine/threonine-protein kinase (Homo sapiens) (Q9H2G2 whole entry, looked up): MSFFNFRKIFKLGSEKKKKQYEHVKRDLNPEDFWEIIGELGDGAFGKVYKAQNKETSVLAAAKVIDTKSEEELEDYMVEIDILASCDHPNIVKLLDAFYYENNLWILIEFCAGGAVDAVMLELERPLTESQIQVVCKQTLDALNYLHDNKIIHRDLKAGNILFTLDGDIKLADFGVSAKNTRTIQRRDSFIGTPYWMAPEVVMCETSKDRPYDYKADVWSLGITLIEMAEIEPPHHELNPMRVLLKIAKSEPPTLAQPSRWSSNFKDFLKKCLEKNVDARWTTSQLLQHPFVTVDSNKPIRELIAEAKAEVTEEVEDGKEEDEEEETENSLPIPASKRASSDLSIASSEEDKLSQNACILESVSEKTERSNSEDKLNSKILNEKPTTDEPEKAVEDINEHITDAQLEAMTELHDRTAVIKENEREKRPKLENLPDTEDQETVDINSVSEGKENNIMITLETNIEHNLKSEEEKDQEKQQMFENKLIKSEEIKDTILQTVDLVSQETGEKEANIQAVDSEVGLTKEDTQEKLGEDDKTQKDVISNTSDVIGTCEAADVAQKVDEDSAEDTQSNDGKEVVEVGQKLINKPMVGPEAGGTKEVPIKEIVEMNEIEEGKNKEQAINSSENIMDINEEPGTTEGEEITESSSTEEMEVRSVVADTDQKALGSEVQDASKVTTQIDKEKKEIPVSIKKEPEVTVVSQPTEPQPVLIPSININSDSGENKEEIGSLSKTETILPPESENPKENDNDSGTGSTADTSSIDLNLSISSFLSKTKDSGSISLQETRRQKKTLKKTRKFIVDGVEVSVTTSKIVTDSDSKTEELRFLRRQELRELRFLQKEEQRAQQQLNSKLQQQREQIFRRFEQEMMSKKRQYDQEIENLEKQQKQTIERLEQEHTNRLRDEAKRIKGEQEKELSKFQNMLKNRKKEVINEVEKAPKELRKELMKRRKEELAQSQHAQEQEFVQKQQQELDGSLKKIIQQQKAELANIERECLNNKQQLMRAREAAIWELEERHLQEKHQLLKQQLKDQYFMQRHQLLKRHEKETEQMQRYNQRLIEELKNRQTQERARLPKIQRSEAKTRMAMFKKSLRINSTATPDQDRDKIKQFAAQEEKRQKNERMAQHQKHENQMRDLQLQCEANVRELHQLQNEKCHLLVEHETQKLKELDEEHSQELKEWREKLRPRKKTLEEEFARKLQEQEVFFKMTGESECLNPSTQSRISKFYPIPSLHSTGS

With `CCN1CCN(Cc2ccc(NC(=O)c3ccc(C)c(Oc4ccnc5[nH]ccc45)c3)cc2C(F)(F)F)CC1` the inhibition [1] was 34.6%, the inhibition [2] was 12.4% and the inhibition [3] was “inactive”. It also gave an inhibition [4] greater than 95%.
Compound `CNc1cc(Oc2cc(C(=O)Nc3cc(N4CCN(C)CC4)cc(C(F)(F)F)c3)ccc2C)ncn1` has an inhibition [5] of -8.4% and an inhibition [6] of -5.8%.
With `CCN1CCN(Cc2ccc(NC(=O)c3ccc(C)c(/C=C/c4cnc5[nH]ccc5c4OC)c3)cc2C(F)(F)F)CC1` the inhibition [7] was 58.7%, the inhibition [8] was 13% and the inhibition [9] was 14.9%.

From ChEMBL document CHEMBL5696442, “Discovery of type II inhibitors of TGFβ-activated kinase 1 (TAK1) and mitogen-activated protein kinase kinase kinase kinase 2 (MAP4K2)” (J Med Chem, 2015)
